ChEMBL document CHEMBL3885881, “DrugMatrix”

Species on record: Rattus norvegicus
Test: DrugMatrix - Regimen: Daily Repeat
Type: toxicity, organism-based, Sprague-Dawley
Set-up: regimen Daily Repeat, gender Male, age 6-8 weeks
Settings: in vivo, po, route oral GAVAGE, vehicle .5 % CMC; for ABSOLUTE BASOPHIL / ABSOLUTE EOSINOPHIL / ABSOLUTE LYMPHOCYTE / ABSOLUTE MONOCYTE / ABSOLUTE SEGMENTED NEUTROPHIL / BASOPHIL / EOSINOPHIL / ERYTHROCYTE COUNT / HEMATOCRIT / HEMOGLOBIN / LEUKOCYTE COUNT / LYMPHOCYTE / MEAN CORPUSCULAR HEMOGLOBIN / MEAN CORPUSCULAR HEMOGLOBIN CONCENTRATION / MEAN CORPUSCULAR VOLUME / MONOCYTE / NEUTROPHIL / NUCLEATED RED BLOOD CELLS / PLATELET COUNT: tissue Blood; for ALANINE AMINOTRANSFERASE / ALBUMIN / ALKALINE PHOSPHATASE / ASPARTATE AMINOTRANSFERASE / BLOOD UREA NITROGEN / CARBON DIOXIDE / CHLORIDE / CHOLESTEROL / CREATINE PHOSPHOKINASE / CREATININE / GLUCOSE / LACTATE DEHYDROGENASE / LIPASE / PHOSPHORUS / POTASSIUM / SODIUM / TOTAL BILIRUBIN / TOTAL PROTEIN / URIC ACID: tissue Plasma
[1] = 1 mg/kg, 72 h, dose level Low, time 3 day
[2] = 1 mg/kg, 120 h, dose level Low, time 5 day
[3] = 1500 mg/kg, 72 h, dose level High, time 3 day
[4] = 1500 mg/kg, 120 h, dose level High, time 5 day

Compound: CCOC(=O)[C@H](CCc1ccccc1)N[C@@H](C)C(=O)N1[C@H](C(=O)O)C[C@@H]2CCC[C@@H]21
- ABSOLUTE BASOPHIL [1]: 0 CELLS/uL
- ABSOLUTE EOSINOPHIL [1]: 0 CELLS/uL
- ABSOLUTE LYMPHOCYTE [1]: 13012 CELLS/uL
- ABSOLUTE MONOCYTE [1]: 125.67 CELLS/uL
- ABSOLUTE SEGMENTED NEUTROPHIL [1]: 829 CELLS/uL
- BASOPHIL [1]: 0%
- EOSINOPHIL [1]: 0%
- ERYTHROCYTE COUNT [1]: 5.51 x10E6/uL
- HEMATOCRIT [1]: 35.1%
- HEMOGLOBIN [1]: 14.07 G/DL
- LEUKOCYTE COUNT [1]: 13.97 x10E3/uL
- LYMPHOCYTE [1]: 92.67%
- MEAN CORPUSCULAR HEMOGLOBIN [1]: 25.53 pg
- MEAN CORPUSCULAR HEMOGLOBIN CONCENTRATION [1]: 40.07 G/DL
- MEAN CORPUSCULAR VOLUME [1]: 63.73 fL
- MONOCYTE [1]: 1%
- NEUTROPHIL [1]: 6.33%
- NUCLEATED RED BLOOD CELLS [1]: 0 /100WBC
- PLATELET COUNT [1]: 1322.67 x10E3/uL
- ALANINE AMINOTRANSFERASE [1]: 44.33 u/L
- ALBUMIN [1]: 4.53 G/DL
- ALKALINE PHOSPHATASE [1]: 320.33 u/L
- ASPARTATE AMINOTRANSFERASE [1]: 82 u/L
- BLOOD UREA NITROGEN [1]: 17 mg/dL
- CARBON DIOXIDE [1]: 28 mmol/L
- CHLORIDE [1]: 100.33 MEQ/L
- CHOLESTEROL [1]: 74.33 mg/dL
- CREATINE PHOSPHOKINASE [1]: 223 u/L
- CREATININE [1]: 0.15 mg/dL
- GLUCOSE [1]: 156.33 mg/dL
- LACTATE DEHYDROGENASE [1]: 243 u/L
- LIPASE [1]: 9.33 u/L
- PHOSPHORUS [1]: 13.7 mg/dL
- POTASSIUM [1]: 7.23 MEQ/L
- SODIUM [1]: 146.6 MEQ/L
- TOTAL BILIRUBIN [1]: 0.27 mg/dL
- TOTAL PROTEIN [1]: 6.27 G/DL
- URIC ACID [1]: 1.87 mg/dL
- ABSOLUTE BASOPHIL [2]: 0 CELLS/uL
- ABSOLUTE EOSINOPHIL [2]: 73 CELLS/uL
- ABSOLUTE LYMPHOCYTE [2]: 14658 CELLS/uL
- ABSOLUTE MONOCYTE [2]: 332.67 CELLS/uL
- ABSOLUTE SEGMENTED NEUTROPHIL [2]: 1636.33 CELLS/uL
- BASOPHIL [2]: 0%
- EOSINOPHIL [2]: 0.33%
- ERYTHROCYTE COUNT [2]: 5.38 x10E6/uL
- HEMATOCRIT [2]: 35.13%
- HEMOGLOBIN [2]: 13.27 G/DL
- LEUKOCYTE COUNT [2]: 16.7 x10E3/uL
- LYMPHOCYTE [2]: 88.33%
- MEAN CORPUSCULAR HEMOGLOBIN [2]: 24.7 pg
- MEAN CORPUSCULAR HEMOGLOBIN CONCENTRATION [2]: 37.8 G/DL
- MEAN CORPUSCULAR VOLUME [2]: 65.37 fL
- MONOCYTE [2]: 1.67%
- NEUTROPHIL [2]: 9.67%
- NUCLEATED RED BLOOD CELLS [2]: 0 /100WBC
- PLATELET COUNT [2]: 1368.33 x10E3/uL
- ALANINE AMINOTRANSFERASE [2]: 58.33 u/L
- ALBUMIN [2]: 4.37 G/DL
- ALKALINE PHOSPHATASE [2]: 395 u/L
- ASPARTATE AMINOTRANSFERASE [2]: 74.67 u/L
- BLOOD UREA NITROGEN [2]: 20 mg/dL
- CARBON DIOXIDE [2]: 28.67 mmol/L
- CHLORIDE [2]: 101.67 MEQ/L
- CHOLESTEROL [2]: 69.67 mg/dL
- CREATINE PHOSPHOKINASE [2]: 158.67 u/L
- CREATININE [2]: 0.2 mg/dL
- GLUCOSE [2]: 153.67 mg/dL
- LACTATE DEHYDROGENASE [2]: 81.67 u/L
- LIPASE [2]: 8.33 u/L
- PHOSPHORUS [2]: 12.57 mg/dL
- POTASSIUM [2]: 6.7 MEQ/L
- SODIUM [2]: 146.17 MEQ/L
- TOTAL BILIRUBIN [2]: 0.2 mg/dL
- TOTAL PROTEIN [2]: 6.03 G/DL
- URIC ACID [2]: 1.43 mg/dL
- ABSOLUTE BASOPHIL [3]: 0 CELLS/uL
- ABSOLUTE EOSINOPHIL [3]: 134.33 CELLS/uL
- ABSOLUTE LYMPHOCYTE [3]: 16266.67 CELLS/uL
- ABSOLUTE MONOCYTE [3]: 0 CELLS/uL
- ABSOLUTE SEGMENTED NEUTROPHIL [3]: 1032.33 CELLS/uL
- BASOPHIL [3]: 0%
- EOSINOPHIL [3]: 0.67%
- ERYTHROCYTE COUNT [3]: 5.12 x10E6/uL
- HEMATOCRIT [3]: 34.53%
- HEMOGLOBIN [3]: 13.77 G/DL
- LEUKOCYTE COUNT [3]: 17.43 x10E3/uL
- LYMPHOCYTE [3]: 93%
- MEAN CORPUSCULAR HEMOGLOBIN [3]: 26.9 pg
- MEAN CORPUSCULAR HEMOGLOBIN CONCENTRATION [3]: 39.93 G/DL
- MEAN CORPUSCULAR VOLUME [3]: 67.37 fL
- MONOCYTE [3]: 0%
- NEUTROPHIL [3]: 6.33%
- NUCLEATED RED BLOOD CELLS [3]: 0.33 /100WBC
- PLATELET COUNT [3]: 1317.67 x10E3/uL
- ALANINE AMINOTRANSFERASE [3]: 41.33 u/L
- ALBUMIN [3]: 4.1 G/DL
- ALKALINE PHOSPHATASE [3]: 454.33 u/L
- ASPARTATE AMINOTRANSFERASE [3]: 81.67 u/L
- BLOOD UREA NITROGEN [3]: 30.67 mg/dL
- CARBON DIOXIDE [3]: 21.67 mmol/L
- CHLORIDE [3]: 104.67 MEQ/L
- CHOLESTEROL [3]: 56.67 mg/dL
- CREATINE PHOSPHOKINASE [3]: 460 u/L
- CREATININE [3]: 0.26 mg/dL
- GLUCOSE [3]: 192.67 mg/dL
- LACTATE DEHYDROGENASE [3]: 379.67 u/L
- LIPASE [3]: 8 u/L
- PHOSPHORUS [3]: 12.53 mg/dL
- POTASSIUM [3]: 7.28 MEQ/L
- SODIUM [3]: 143.5 MEQ/L
- TOTAL BILIRUBIN [3]: 0.17 mg/dL
- TOTAL PROTEIN [3]: 5.9 G/DL
- URIC ACID [3]: 1.93 mg/dL
- ABSOLUTE BASOPHIL [4]: 0 CELLS/uL
- ABSOLUTE EOSINOPHIL [4]: 56.33 CELLS/uL
- ABSOLUTE LYMPHOCYTE [4]: 15250 CELLS/uL
- ABSOLUTE MONOCYTE [4]: 259.67 CELLS/uL
- ABSOLUTE SEGMENTED NEUTROPHIL [4]: 1034 CELLS/uL
- BASOPHIL [4]: 0%
- EOSINOPHIL [4]: 0.33%
- ERYTHROCYTE COUNT [4]: 5.8 x10E6/uL
- HEMATOCRIT [4]: 35.77%
- HEMOGLOBIN [4]: 14.07 G/DL
- LEUKOCYTE COUNT [4]: 16.6 x10E3/uL
- LYMPHOCYTE [4]: 92%
- MEAN CORPUSCULAR HEMOGLOBIN [4]: 24.3 pg
- MEAN CORPUSCULAR HEMOGLOBIN CONCENTRATION [4]: 39.37 G/DL
- MEAN CORPUSCULAR VOLUME [4]: 61.63 fL
- MONOCYTE [4]: 1.67%
- NEUTROPHIL [4]: 6%
- NUCLEATED RED BLOOD CELLS [4]: 0 /100WBC
- PLATELET COUNT [4]: 1413.67 x10E3/uL
- ALANINE AMINOTRANSFERASE [4]: 55.33 u/L
- ALBUMIN [4]: 4.33 G/DL
- ALKALINE PHOSPHATASE [4]: 583.33 u/L
- ASPARTATE AMINOTRANSFERASE [4]: 89.33 u/L
- BLOOD UREA NITROGEN [4]: 31.33 mg/dL
- CARBON DIOXIDE [4]: 29 mmol/L
- CHLORIDE [4]: 102 MEQ/L
- CHOLESTEROL [4]: 35 mg/dL
- CREATINE PHOSPHOKINASE [4]: 314.67 u/L
- CREATININE [4]: 0.26 mg/dL
- GLUCOSE [4]: 150.33 mg/dL
- LACTATE DEHYDROGENASE [4]: 374.33 u/L
- LIPASE [4]: 8.67 u/L
- PHOSPHORUS [4]: 11.03 mg/dL
- POTASSIUM [4]: 7.1 MEQ/L
- SODIUM [4]: 143.93 MEQ/L
- TOTAL BILIRUBIN [4]: 0.27 mg/dL
- TOTAL PROTEIN [4]: 6.3 G/DL
- URIC ACID [4]: 1.6 mg/dL
